Data as given in PMC6018403 (Frontiers in Pharmacology, 2018).

Test system: Caco-2 cell monolayer
Test: Caco-2 cell monolayer permeability test (bidirectional transport of berberine)
Type: in vitro ADME, Human
Conditions: BER 5 μM
Experimental: The final concentration of GQD, GQD−GC, and Huang-Lian water extracts were 32, 28, and 6 μg/mL, respectively. […]
containing glucose (25 mM) and HEPES (10 mM). The final concentration of berberine was 5 µM. The final concentration of DMSO was below 1% (v/v). […]
inducer of Caco-2 cells, respectively. For the inhibitor experiments, the Caco-2 cells were cultivated in DMEM until the 21st day. After removal of the medium, the cells were incubated for 30 minutes with HBSS containing 5 µM of verapamil. For the inducer experiments, the cells were cultivated in DMEM until the 18th day, and then […]
was removed on the 21st day, and the cells were then incubated for 30 min with HBSS.
Berberine and glycyrrhizic acid were added to the system following HBSS incubation.
For all bidirectional transport assays, samples (300 µL) were collected after 30, 60, 90, […]
with an equal volume of HBSS. The samples were freeze-dried and then dissolved in 300 µL of methanol. The solutions were filtered through 0.22-µm membranes before […]
3. Inhibitor and inducer experiments […]
respectively. For the inhibition experiments, Caco-2 cells were cultivated in DMEM until the 21st day. After removal of the medium, the cells were incubated for 30 minutes with HBSS containing verapamil (5 µM). For induction experiments, the cells were cultivated in DMEM until the 18th day, and then cultivated in DMEM […]
The medium was removed on the 21st day, and the cells were then incubated for 30 min with HBSS. Berberine and glycyrrhizic acid were added to the system following HBSS incubation.

COc1ccc2cc3[n+](cc2c1OC)CCc1cc2c(cc1-3)OCO2 [Compound 24, berberine]
transport rate of BER, PAB (influx, apical to basolateral) (with GLY 5 μM): 84%
transport rate of BER, PBA (efflux) (with GLY 5 μM): 10%
transport rate of BER, PAB (influx, apical to basolateral) (without GLY): 59%
transport rate of BER, PBA (efflux) (without GLY): 34%
